Test results reported in PubChem BioAssay AID1963443 (Molecular Pharmacology Branch, DTP, NCI, 2024).
“And” between values parts separate entries of the source, which are not always exact repeats. Equal values may be shown once.

System: MDA-MB-231 complex spheroids, growth inhibition
Assay: Anticancer human tumor MDA-MB-231 cell line growth inhibition [Asc];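 further: spheroids exposed to compounds for 7 days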
Conditions: for viability, T/C: stronger effect = lower value
How it was run: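 Spheroid model: tumor line + HUVEC + hMSC. Single agents and combinations; top conc. at/near clinical Cmax (10 microM if undetermined), half-log dilutions. DMSO stocks at 800-fold test concentration.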

[1] = curve of first compound, second compound 0.01 µM
[2] = curve of first compound, second compound 0.0316 µM
[3] = curve of first compound, second compound 0.1 µM
[4] = curve of first compound, second compound 0.316 µM
[5] = curve of first compound, second compound 1 µM
[6] = second compound 0.1 µM, first compound 0.0316 µM
[7] = second compound 0.1 µM, first compound 0.1 µM
[8] = second compound 0.316 µM, first compound 0.0316 µM
[9] = second compound 0.316 µM, first compound 0.1 µM
[10] = second compound 1 µM, first compound 0.0316 µM
[11] = second compound 1 µM, first compound 0.1 µM

`CCN1C(C(=O)NC23CCC(C(=O)O)(CC2)CC3)C(c2cccc(Cl)c2F)C2(C(=O)Nc3cc(Cl)ccc32)C12CCCCC2` (configuration not stated) + CNC(C)C(=O)NC1CN(S(=O)(=O)c2cccc(S(=O)(=O)N3CCC4CCC(C(=O)NC(c5ccccc5)c5ccccc5)N4C(=O)C(NC(=O)C(C)NC)C3)c2)CCC2CCC(C(=O)NC(c3ccccc3)c3ccccc3)N2C1=O was tested. Which IC50 [1] did it give?
The IC50 was under 9.49 nM.

And the IC50 [2]?
Its IC50 is under 9.49 nM.

What about the IC50 [3] of the same compound?
The IC50 was under 9.49 nM.

And the IC50 [4]?
Its IC50 is under 9.49 nM.

What about the IC50 [5] of the same compound?
The IC50 was under 9.49 nM.

And the viability, T/C (second compound 0.01 µM, first compound 0.00949 µM)?
Its viability, T/C is 2.02%.

And the viability, T/C (second compound 0.01 µM, first compound 0.03 µM)?
Its viability, T/C is 2.75%.

What about the viability, T/C (second compound 0.01 µM, first compound 0.0949 µM) of the same compound?
The viability, T/C was 1.79%.

What about the viability, T/C (second compound 0.01 µM, first compound 0.3 µM) of the same compound?
Its viability, T/C is 1.37%.

And the viability, T/C (second compound 0.01 µM, first compound 0.949 µM)?
Its viability, T/C is 2.73%.

What about the viability, T/C (second compound 0.01 µM, first compound 3 µM) of the same compound?
The viability, T/C was 2.05%.

What about the viability, T/C (second compound 0.0316 µM, first compound 0.00949 µM) of the same compound?
The viability, T/C was 1.54%.

And the viability, T/C (second compound 0.0316 µM, first compound 0.03 µM)?
The viability, T/C was 2.84%.

What about the viability, T/C (second compound 0.0316 µM, first compound 0.0949 µM) of the same compound?
The viability, T/C was 1.94%.

What about the viability, T/C (second compound 0.0316 µM, first compound 0.3 µM) of the same compound?
The viability, T/C was 0.92%.

And the viability, T/C (second compound 0.0316 µM, first compound 0.949 µM)?
The viability, T/C was 1.76%.

What about the viability, T/C (second compound 0.0316 µM, first compound 3 µM) of the same compound?
Its viability, T/C is 1.43%.

And the viability, T/C (second compound 0.1 µM, first compound 0.00949 µM)?
The viability, T/C was 1.27%.

And the viability, T/C (second compound 0.1 µM, first compound 0.03 µM)?
Its viability, T/C is 1.6%.

And the viability, T/C (second compound 0.1 µM, first compound 0.0949 µM)?
The viability, T/C was 1.85%.

And the viability, T/C (second compound 0.1 µM, first compound 0.3 µM)?
Its viability, T/C is 0.87%.

What about the viability, T/C (second compound 0.1 µM, first compound 0.949 µM) of the same compound?
Its viability, T/C is 1.78%.

And the viability, T/C (second compound 0.1 µM, first compound 3 µM)?
The viability, T/C was 2.03%.

What about the viability, T/C (second compound 0.316 µM, first compound 0.00949 µM) of the same compound?
The viability, T/C was 0.92%.

And the viability, T/C (second compound 0.316 µM, first compound 0.03 µM)?
The viability, T/C was 2.14%.

What about the viability, T/C (second compound 0.316 µM, first compound 0.0949 µM) of the same compound?
The viability, T/C was 1.07%.

What about the viability, T/C (second compound 0.316 µM, first compound 0.3 µM) of the same compound?
Its viability, T/C is 0.78%.

And the viability, T/C (second compound 0.316 µM, first compound 0.949 µM)?
Its viability, T/C is 1.14%.

What about the viability, T/C (second compound 0.316 µM, first compound 3 µM) of the same compound?
Its viability, T/C is 1.24%.

And the viability, T/C (second compound 1 µM, first compound 0.00949 µM)?
The viability, T/C was 1.09%.

And the viability, T/C (second compound 1 µM, first compound 0.03 µM)?
Its viability, T/C is 0.9%.

And the viability, T/C (second compound 1 µM, first compound 0.0949 µM)?
The viability, T/C was 0.88%.

What about the viability, T/C (second compound 1 µM, first compound 0.3 µM) of the same compound?
The viability, T/C was 2.3%.

And the viability, T/C (second compound 1 µM, first compound 0.949 µM)?
The viability, T/C was 0.81%.

What about the viability, T/C (second compound 1 µM, first compound 3 µM) of the same compound?
The viability, T/C was 0.71%.

How did the viability, T/C (compound 0.000949 µM) turn out when `NC(=O)C(=Cn1cnc(-c2cc(C(F)(F)F)cc(C(F)(F)F)c2)n1)c1cncnc1` was run?
The viability, T/C was 95.7% and 87.8% and 73.5%.

What about the viability, T/C (compound 0.003 µM) of the same compound?
Its viability, T/C is 92.4% and 95.1% and 81.3%.

And the viability, T/C (compound 0.00949 µM)?
Its viability, T/C is 84.7% and 87.1% and 84.5%.

And the viability, T/C (compound 0.03 µM)?
Its viability, T/C is 57.8% and 56.5% and 60.4%.

What about the viability, T/C (compound 0.0949 µM) of the same compound?
Its viability, T/C is 50.5% and 47% and 48.1%.

What about the viability, T/C (compound 0.3 µM) of the same compound?
Its viability, T/C is 14.4% and 21.2% and 21.8%.

And the IC50 (curve of compound)?
The IC50 was 72.4 nM and 61.5 nM and 74.9 nM.

What does the source list for `C=CC(=O)N1CCN(c2nc(=O)n(-c3c(C)ccnc3C(C)C)c3nc(-c4c(O)cccc4F)c(F)cc23)C(C)C1` (configuration not stated) + Cc1c(S(C)(=O)=O)c(-c2cc(F)cc(N3CCN(c4ccc(NS(=O)(=O)c5ccc(NC(CCN6CCC(C(=O)OCCCP(=O)(O)O)CC6)CSc6ccccc6)c(S(=O)(=O)C(F)(F)F)c5)cc4)CC3)c2)c(-c2ccc(Cl)cc2)n1C(C)C?
IC50 [3]: > 10000 nM; IC50 [4]: > 10000 nM; IC50 [5]: > 10000 nM; IC50 (curve of first compound, second compound 3.16 µM): > 10000 nM; IC50 (curve of first compound, second compound 10 µM): > 10000 nM; viability, T/C [6]: 99.8%; viability, T/C [7]: 94.4%; viability, T/C (second compound 0.1 µM, first compound 0.316 µM): 96.7%; viability, T/C (second compound 0.1 µM, first compound 1 µM): 102%; viability, T/C (second compound 0.1 µM, first compound 3.16 µM): 105%; viability, T/C (second compound 0.1 µM, first compound 10 µM): 98.4%; viability, T/C [8]: 106%; viability, T/C [9]: 112%; viability, T/C (second compound 0.316 µM, first compound 0.316 µM): 111%; viability, T/C (second compound 0.316 µM, first compound 1 µM): 117%; viability, T/C (second compound 0.316 µM, first compound 3.16 µM): 116%; viability, T/C (second compound 0.316 µM, first compound 10 µM): 116%; viability, T/C [10]: 108%; viability, T/C [11]: 106%; viability, T/C (second compound 1 µM, first compound 0.316 µM): 100%; viability, T/C (second compound 1 µM, first compound 1 µM): 111%; viability, T/C (second compound 1 µM, first compound 3.16 µM): 109%; viability, T/C (second compound 1 µM, first compound 10 µM): 96.6%; viability, T/C (second compound 3.16 µM, first compound 0.0316 µM): 104%; viability, T/C (second compound 3.16 µM, first compound 0.1 µM): 96.8%; viability, T/C (second compound 3.16 µM, first compound 0.316 µM): 89.1%; viability, T/C (second compound 3.16 µM, first compound 1 µM): 97.5%; viability, T/C (second compound 3.16 µM, first compound 3.16 µM): 105%; viability, T/C (second compound 3.16 µM, first compound 10 µM): 91.2%; viability, T/C (second compound 10 µM, first compound 0.0316 µM): 96.6%; viability, T/C (second compound 10 µM, first compound 0.1 µM): 93.7%; viability, T/C (second compound 10 µM, first compound 0.316 µM): 93.3%; viability, T/C (second compound 10 µM, first compound 1 µM): 96.6%; viability, T/C (second compound 10 µM, first compound 3.16 µM): 97.1%; viability, T/C (second compound 10 µM, first compound 10 µM): 83.4%

What does the source list for `Cn1ncnc1[C@H]1c2n[nH]c(=O)c3cc(F)cc(c23)N[C@@H]1c1ccc(F)cc1` + CNC(C)C(=O)NC1CN(S(=O)(=O)c2cccc(S(=O)(=O)N3CCC4CCC(C(=O)NC(c5ccccc5)c5ccccc5)N4C(=O)C(NC(=O)C(C)NC)C3)c2)CCC2CCC(C(=O)NC(c3ccccc3)c3ccccc3)N2C1=O?
IC50 [1]: < 0.316 nM; IC50 [2]: < 0.316 nM; IC50 [3]: < 0.316 nM; IC50 [4]: < 0.316 nM; IC50 [5]: < 0.316 nM; viability, T/C (second compound 0.01 µM, first compound 0.000316 µM): 1.83%; viability, T/C (second compound 0.01 µM, first compound 0.001 µM): 2.14%; viability, T/C (second compound 0.01 µM, first compound 0.00316 µM): 2.04%; viability, T/C (second compound 0.01 µM, first compound 0.01 µM): 2.04%; viability, T/C (second compound 0.01 µM, first compound 0.0316 µM): 1.45%; viability, T/C (second compound 0.01 µM, first compound 0.1 µM): 1.63%; viability, T/C (second compound 0.0316 µM, first compound 0.000316 µM): 1.73%; viability, T/C (second compound 0.0316 µM, first compound 0.001 µM): 1.45%; viability, T/C (second compound 0.0316 µM, first compound 0.00316 µM): 1.76%; viability, T/C (second compound 0.0316 µM, first compound 0.01 µM): 1.3%; viability, T/C (second compound 0.0316 µM, first compound 0.0316 µM): 1.2%; viability, T/C (second compound 0.0316 µM, first compound 0.1 µM): 1.22%; viability, T/C (second compound 0.1 µM, first compound 0.000316 µM): 1.17%; viability, T/C (second compound 0.1 µM, first compound 0.001 µM): 1.47%; viability, T/C (second compound 0.1 µM, first compound 0.00316 µM): 0.96%; viability, T/C (second compound 0.1 µM, first compound 0.01 µM): 1.19%; viability, T/C [6]: 1.34%; viability, T/C [7]: 1.16%; viability, T/C (second compound 0.316 µM, first compound 0.000316 µM): 1.12%; viability, T/C (second compound 0.316 µM, first compound 0.001 µM): 1.11%; viability, T/C (second compound 0.316 µM, first compound 0.00316 µM): 1.32%; viability, T/C (second compound 0.316 µM, first compound 0.01 µM): 0.91%; viability, T/C [8]: 1.05%; viability, T/C [9]: 1.11%; viability, T/C (second compound 1 µM, first compound 0.000316 µM): 1.53%; viability, T/C (second compound 1 µM, first compound 0.001 µM): 1.2%; viability, T/C (second compound 1 µM, first compound 0.00316 µM): 1.23%; viability, T/C (second compound 1 µM, first compound 0.01 µM): 1.23%; viability, T/C [10]: 1.28%; viability, T/C [11]: 1.26%
